Data taken from paper PMC2074382 (British Journal of Cancer, 1996).
Counter-ions that a name gives are not always drawn.

Legend:
[1] = system: HT-29 and SW-48 colon, PC-3 prostate, MX-1 breast, H460 lung, SKOV3 ovarian and KB epidermoid carcinomas xenografts; details: HT-29, SW-48, PC-3, MX-1, H460, SKOV3, KB; ref Emerson et al., 1993, 1994, 1995; cited from earlier work
bone marrow cultures = details: ref Emerson et al., 1995; cited from earlier work
[2] = animals, intravenous route; cited from earlier work
solid tumour = assay: Tumour response (WHO criteria) in phase I study; type: in vivo, human
Excerpt: British Journal of Cancer (1996) 73, 744-750 O (C? 1996 Stockton Press All rights reserved 0007-0920/96 $12.00 Phase I and pharmacological study of the new topoisomerase I inhibitor G1147211, using a daily x 5 intravenous administration CJH Gerrits', GJ Creemers', JHM Schellens', P Wissel2, AS Th Planting', R Kunka2, K Selinger2, M de Boer-Dennert', Y Marijnen3, M Harteveld' and J Verweijl 'Department of Medical Oncology, Rotterdam Cancer Institute, Rotterdam, The Netherlands; 2Glaxo Wellcome Inc, Department of Clinical Pharmacology, NC, USA; 3Glaxo Wellcome Inc, Department of Clinical Research, Zeist, The Netherlands. Summary Topoisomerase I inhibitors are interesting anti-cancer agents with a novel mechanism of action. […] In subsequent patient cohorts the dose was escalated from 0.3 to 1.5 mg m-2 day-'. Pharmacokinetics analysis was performed on days 1 and 4 of the first course using a validated high- performance liquid chromatographic assay and non-compartmental methods. […] Its further development was stopped because of unpredictable and severe myelosuppression, gastrointestinal toxicity and haemorrhagic cystitis. In the late 1980s two discoveries brought about a renewal of interest in CPT; firstly, topoisomerase I was identified as the single cellular target of CPT (Hsiang et al., 1985; Hsiang and Liu, 1988) and, secondly, an overexpression of topoisomerase I was found in various tumour cell lines but not in normal tissues (Giovanella et al., 1989; Hirabayaski et al., 1992; Potmesil et al., 1988). Topoisomerase I is a nuclear enzyme that resolves topological problems of the torsionally strained (supercoiled) DNA (Slichenmyer et al., 1993). This is achieved by forming a covalent adduct between topoisome- rase I and the DNA, termed the cleavable complex. This catalytic intermediate creates single-strand DNA breaks, allowing the DNA molecule to rotate around the intact DNA strand at the cleavage site, leading to a relaxation of the DNA molecule and in this way replication, transcription and other DNA functions can proceed. These enzyme- bridged breaks are then resealed by topoisomerase I. CPT stabilises the cleavable complexes, thereby preventing resealing of single-strand DNA breaks in the presence of the drug (Covey et al., 1989; D'Arpa and Liu, 1989; Eng et al., 1988). Cytotoxicity is specific to the S-phase of the cell cycle because the double-strand breaks that occur during this phase are more difficult to repair in the presence of the drug (Horwitz and Horwitz, 1973). […]

CC[C@@]1(O)C(=O)OCc2c1cc1n(c2=O)Cc2c-1nc1cc3c(cc1c2CN1CCN(C)CC1)OCCO3 [GI147211, [7 - (methylpiperazinomethylene) - 10,11 - ethylene-dioxy-20(S)] camptothecin dihydrochloride]
cytotoxicity against xenografts of human cancers [1]: cytotoxicity against several xenografts of human cancers | myelotoxicity compared with topotecan (bone marrow cultures): more myelotoxic than topotecan | main and dose-limiting toxicity [2]: myelosuppression | stable disease, patients (solid tumour; 18 evaluable patients): ten | response in leiomyosarcoma patient (solid tumour; liver metastasis of leiomyosarcoma of the stomach, after two courses): minor response | partial response, patients (solid tumour; metastatic colorectal cancer resistant to 5-FU/folinic acid, 18 evaluable patients): One | duration of remission (solid tumour; partial response, colorectal cancer): 6 weeks
